The values that follow come from ChEMBL document CHEMBL1148929, “Phytochemical studies on Stemona burkillii prain: two new dihydrostemofoline alkaloids” (J Nat Prod, 2004).

Data set [1] relates to Artemia. The experiment in a line: Toxicity to brine shrimp. It counts as organism-based. The note with it: in vivo.
Data set [2] has as its system Cladosporium cladosporioides. The experiment in a line: Antifungal activity against Cladosporium cladosporioides assessed as inhibition of spore germination. Type of data set: functional, organism-based.

Bounds are passed on as bounds.

Usually LC50 stands for the concentration lethal to half of the exposed cells or organisms. High values mean lower toxicity, low ones greater toxicity. In turn, `CCCC[C@@]12C3CCN1[C@H]1C[C@H]2O[C@@]32O/C(=C3\OC(=O)C(C)=C3OC)[C@@H](C)[C@H]12` [STEMOFOLINE] displayed a 50% lethal concentration (LC50) in data set [1] of over 33 ppm. Also, in data set [2], the EC50 is over 219 ppm.

In turn, `CC[C@H](O)C[C@@]12[C@@H]3C[C@H]4[C@H]5[C@H](C)/C(=C6/OC(=O)C(C)=C6OC)O[C@]5(O3)[C@H]1CCN42` [2'-HYDROXYSTEMOFOLINE] showed an LC50 in data set [1] of over 33 ppm. In addition, the EC50 in data set [2] was over 219 ppm.
